Results reported in patent publication US5827890A, “Succinamide derivatives, processes for their preparation and their use as gelatinase and collagenase inhibitors” (Celltech Therapeutics Ltd., priority 1993, dated 1998).
pKi: −log10 of the molar value.

Legend:
gelatinase A (72 K form) = assay: Pleural cavity assay, oral activity in mice (injected gelatinase A and radiolabelled [14C]-gelatin); type: in vivo; conditions: for inhibition (comparative experiment): each compound administered at the same dose (dose not stated)
Protocol: The oral activity of the compounds according to the invention may be determined using the pleural cavity assay described below.
A […] solution of the test compound in an appropriate solvent (e.g. 50% polyethylene glycol (PG) plus a variable proportion of dimethyl sulphoxide (DMSO) (if required) is administered orally. After an interval of up to 24 hrs, 0.4 ml of a mixture of an equal volume (2.2 ml) of the enzyme gelatinase A (72 K form at a concentration of 20 nM) and radiolabelled [^14 C]-gelatin (at an approximate concentration of 10 μM i.e. 500 times molar excess) is injected into the pleural cavity and maintained at […]. After 35 min mice are overdosed with anaesthetic, the contents of the pleural cavity aspirated and the aspirates cleared by centrifugation at 4° C. then diluted to 15% in trichloroacetic acid (TCA) and left overnight at 4° C. The resulting TCA precipitate is then separated by centrifugation and radioactivity in each supernatant measured by scintillation counting. Results are expressed as a % inhibition of enzyme activity calculated by comparing the radioactivity measured for each test compound with a control value obtained by performing the same assay in the absence of a gelatinase inhibitor.
A comparative experiment was carried out using the same procedure and the compound of Example 1 [A] and the amides [B], [C] and [D] (prepared in a similar fashion to the compound of Example 1): [drawing 19]

Gelatinase 72KD = biological target: T1, Gelatinase 72KD (Homo sapiens, UniProt P08253); assay: Enzyme assay to determine Ki values, peptide substrate Dnp-Pro-Leu-Gly-Leu-Trp-Ala-D-Arg-NH2 (gelatinase 72KD); type: biochemical; conditions: for pKi: incubated overnight, pH 7.5, true Ki from plot of Ki (app) vs. [S]
T1 sequence (P08253 110-660): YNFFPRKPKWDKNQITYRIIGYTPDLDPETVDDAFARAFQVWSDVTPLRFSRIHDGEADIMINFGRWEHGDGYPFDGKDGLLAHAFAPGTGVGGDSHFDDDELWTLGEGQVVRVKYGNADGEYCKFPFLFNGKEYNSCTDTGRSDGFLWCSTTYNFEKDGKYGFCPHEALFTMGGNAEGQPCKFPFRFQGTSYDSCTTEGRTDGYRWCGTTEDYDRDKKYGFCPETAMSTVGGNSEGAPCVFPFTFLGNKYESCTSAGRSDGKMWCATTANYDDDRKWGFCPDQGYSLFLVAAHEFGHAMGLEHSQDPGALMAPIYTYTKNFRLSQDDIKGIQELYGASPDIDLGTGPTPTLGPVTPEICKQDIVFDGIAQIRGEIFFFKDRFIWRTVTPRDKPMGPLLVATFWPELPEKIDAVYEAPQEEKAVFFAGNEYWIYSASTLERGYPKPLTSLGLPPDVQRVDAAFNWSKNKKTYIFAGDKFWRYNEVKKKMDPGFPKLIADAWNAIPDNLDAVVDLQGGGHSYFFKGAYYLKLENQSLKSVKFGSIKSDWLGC
Protocol: (§1) The activity of the compounds of the invention may be determined as described below.
(§2) All enzyme assays to determine Ki values were performed using the peptide substrate Dnp-Pro-Leu-Gly-Leu-Trp-Ala-D-Arg-NH2. [M. Sharon Stock and Robert D. Gray. JBC 264, 4277-81, 1989). The enzymes cleave at the Gly-Leu bond which can be followed fluorimetrically by measuring the increase in Trp fluorescence emission associated with the removal of the quenching dinitrophenol (Dnp) group.
(§3) Brij 35 at either room temperature or 37° C. depending on the enzyme. The reaction is stopped by adjusting the pH to 4 using 0.1M sodium acetate buffer and the fluorescence read at an excitation wavelength of 280 nm and emission wavelength of 346 nm.
(§4) Ki values can be established using the equation for tight-binding inhibition: [formula] where Vo is the initial rate of reaction in the absence of inhibitor, Vi is the initial rate in the presence of inhibitor, [E] is the total enzyme concentration and [I] the total inhibitor concentration in the reaction mixture.
(§5) For stromelysin and collagenase, Ki (app) was assumed to approximate to the true Ki as [S]<<Km for the substrate hydrolysis. For gelatinase the Ki was determined by performing the analyses at several substrate concentrations. A plot of Ki (app) vs. [S] then gave the true Ki as the value of the y-axis intercept.

Collagenase = biological target: T2, Collagenase (Homo sapiens, UniProt P03956); assay: Enzyme assay to determine Ki values, peptide substrate Dnp-Pro-Leu-Gly-Leu-Trp-Ala-D-Arg-NH2 (collagenase); type: biochemical; conditions: for pKi: incubated overnight, pH 7.5, Ki (app) assumed to approximate true Ki
T2 sequence (P03956 100-469): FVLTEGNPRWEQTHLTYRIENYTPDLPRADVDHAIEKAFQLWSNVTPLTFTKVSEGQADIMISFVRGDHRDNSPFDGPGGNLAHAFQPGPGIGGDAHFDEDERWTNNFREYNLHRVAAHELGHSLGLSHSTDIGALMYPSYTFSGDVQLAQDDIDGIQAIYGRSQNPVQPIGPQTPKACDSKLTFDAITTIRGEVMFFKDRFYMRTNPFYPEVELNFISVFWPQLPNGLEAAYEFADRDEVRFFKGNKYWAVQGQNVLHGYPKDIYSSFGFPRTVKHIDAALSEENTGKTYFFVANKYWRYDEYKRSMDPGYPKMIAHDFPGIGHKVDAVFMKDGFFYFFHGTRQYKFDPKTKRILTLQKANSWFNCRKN
Protocol: as §1, §2, §3, §4, §5

Stromelysin-1 = Stromelysin-1 (Homo sapiens, UniProt P08254); assay: Enzyme assay to determine Ki values, peptide substrate Dnp-Pro-Leu-Gly-Leu-Trp-Ala-D-Arg-NH2 (stromelysin-1); type: biochemical; conditions: incubated overnight, pH 7.5; Ki (app) assumed to approximate true Ki
Protocol: as §1, §2, §3, §4, §5

[1] = test system: vascularisation of sponge implants; assay: Inhibition of angiogenesis: vascularisation of sponge implants in mice, xenon clearance; type: in vivo; conditions: oral, twice per day, 100 mg/kg in PG vehicle, beginning 8 h after sponge implantation
Protocol: Compounds were assessed by their ability to inhibit vascularisation of sponge implants in mice. The amount of vascularisation in this model is determined by the rate of clearance of radioactive xenon from the sponge. Compounds in polyethylene glycol (PG) vehicle were orally administered twice per day at a dose of 100 mg/kg, with administration beginning 8 h after sponge implementation.
FIG. 1 illustrates the result of one experiment using the compound of Example 1. For comparative purposes the following compound (Compound [E]) was used: [drawing 20] (prepared as described in International Patent Application No. PCT/GB 94/00896).
The results are expressed in FIG. 1 as a graph of xenon clearance (expressed as a clearance constant) against time.

[2] = relative to the compound of Example 1

Stromelysin-1, sequence (P08254 100-477): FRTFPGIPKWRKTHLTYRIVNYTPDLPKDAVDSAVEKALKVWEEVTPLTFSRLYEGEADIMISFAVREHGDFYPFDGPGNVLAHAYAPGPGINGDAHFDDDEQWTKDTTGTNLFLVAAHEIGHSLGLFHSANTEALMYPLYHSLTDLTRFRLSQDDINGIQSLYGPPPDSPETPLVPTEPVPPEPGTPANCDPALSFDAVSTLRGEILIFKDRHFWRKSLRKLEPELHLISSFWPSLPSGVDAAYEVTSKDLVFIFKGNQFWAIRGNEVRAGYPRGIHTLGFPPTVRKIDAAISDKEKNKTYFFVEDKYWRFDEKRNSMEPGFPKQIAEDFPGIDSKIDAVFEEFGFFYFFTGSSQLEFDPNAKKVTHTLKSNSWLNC

CC(C)[C@H](NC(=O)[C@H](CCCc1ccc(Cl)cc1)CC(=O)NO)C(N)=O [Compound [B], reference compound]
inhibition (comparative experiment) (gelatinase A (72 K form)): 53%

CC(C)C[C@H](NC(=O)[C@H](CCCc1ccc(Cl)cc1)CC(=O)NO)C(N)=O [Compound [C], reference compound]
inhibition (comparative experiment) (gelatinase A (72 K form)): 25%

CCNC(=O)[C@@H](NC(=O)[C@H](CCCc1ccc(Cl)cc1)CC(=O)NO)C(C)(C)C [Compound [D], reference compound]
inhibition (comparative experiment) (gelatinase A (72 K form)): 11%

CNC(=O)[C@@H](NC(=O)[C@@H](CC(=O)NO)CC(C)C)C(C)(C)SC [Compound [E], reference compound]
fold less potent on gelatinase than the compound of Example 1 (Gelatinase 72KD; [2]): approximately 40 fold | fold more potent on collagenase than the compound of Example 1 (Collagenase; [2]): approximately 40 fold

CC(C)(C)[C@H](NC(=O)[C@H](CCCc1ccc(Cl)cc1)CC(=O)NO)C(N)=O [Example 1, N^4 Hydroxy-N^1-(1-(S)-carbamoyl-2.2-dimethylpropyl)-2-(R)-4(chlorophenylpropyl)succinamide]
pKi (Gelatinase 72KD): 10.15 | % Inhibition of enzyme activity (gelatinase A (72 K form); at 10 mg/Kg): 100% | inhibition (comparative experiment) (gelatinase A (72 K form)): 100% | pKi (Stromelysin-1): 7.96 | inhibition of vascularisation / xenon clearance (FIG. 1) [1]: substantial inhibition of vascularisation as seen by the marked inhibition of xenon clearance, which was much greater than the inhibition achieved by the non-specific metalloproteinase inhibitor Compound [E] | pKi (Collagenase): 6.91

CC(C)(C)[C@H](NC(=O)[C@H](CCCc1ccccc1)CC(=O)NO)C(N)=O [Example 2, N^4 -Hydroxy-N^1-(1-(S)-carbamoyl-2.2-dimethylpropyl)-2-(R)-(phenylpropyl)succinamide]
% Inhibition of enzyme activity (gelatinase A (72 K form); at 10 mg/Kg): 73%

Cc1ccc(CCC[C@H](CC(=O)NO)C(=O)N[C@H](C(N)=O)C(C)(C)C)cc1 [Example 3, N^4 Hydroxy-N^1-(1-(S)-carbamoyl-2.2-dimethylpropyl)-2-(R)-(4-methylphenylpropyl)succinamide]
pKi (Gelatinase 72KD): 10.38 | % Inhibition of enzyme activity (gelatinase A (72 K form); at 10 mg/Kg): 95% | pKi (Stromelysin-1): 7.99 | pKi (Collagenase): 6.31

COc1ccc(CCC[C@H](CC(=O)NO)C(=O)N[C@H](C(N)=O)C(C)(C)C)cc1 [Example 4, N^4 -Hydroxy-N^1-(1-(S)-carbamoyl-2.2-dimethylpropyl)-2-(R)-(4-methoxyphenylpropyl)succinamide]
pKi (Gelatinase 72KD): 10.64 | % Inhibition of enzyme activity (gelatinase A (72 K form); at 10 mg/Kg): 82%

CNC(=O)[C@@H](NC(=O)[C@H](CCCc1ccc(Cl)cc1)CC(=O)NO)C(C)(C)C [Example 5, N^4 -Hydroxy-N^1-(1-(S)-methylaminocarbonyl-2.2-dimethylpropyl)-2-(R)-(4-chlorophenylpropyl)succinamide]
% Inhibition of enzyme activity (gelatinase A (72 K form); at 10 mg/Kg): 64% | pKi (Stromelysin-1): 8.58 | pKi (Collagenase): 7.65

CC(C)(C)[C@H](NC(=O)[C@H](CCCc1ccc(F)cc1)CC(=O)NO)C(N)=O [Example 6, N^4 -Hydroxy-N^1-(1-(S)-carbamoyl-2.2-dimethylpropyl)-2-(R)-(4-fluorophenylpropyl)succinamide]
pKi (Gelatinase 72KD): 9.68 | % Inhibition of enzyme activity (gelatinase A (72 K form); at 10 mg/Kg): 76%

CNC(=O)[C@@H](NC(=O)[C@H](CCCc1ccc(C)cc1)CC(=O)NO)C(C)(C)C [Example 7, N^4 -Hydroxy-N^1-(1-(S)-methylaminocarbonyl-2.2-dimethylpropyl)-2-(R)-(4-methylphenylpropyl)succinamide]
pKi (Gelatinase 72KD): 10.64 | % Inhibition of enzyme activity (gelatinase A (72 K form); at 80 mg/Kg): 100% | pKi (Stromelysin-1): 8.00 | pKi (Collagenase): 7.07
